Key:
Format in all cases: functional, cell-based
DU-145 = assay: Cytotoxicity against Homo sapiens (human) DU145 cells by MTT assay
HeLa = assay: Cytotoxicity against Homo sapiens (human) HeLa cells by MTT assay
HCT-116 = assay: Cytotoxicity against Homo sapiens (human) HCT116 cells by MTT assay
SGC-7901 = assay: Cytotoxicity against Homo sapiens (human) SGC7901 cells by MTT assay
K562 = assay: Cytotoxicity against Homo sapiens (human) K562 cells by MTT assay

| Compound | IC50 (DU-145) [µM] | IC50 (HeLa) [µM] | IC50 (HCT-116) [µM] | IC50 (SGC-7901) [µM] | IC50 (K562) [µM] |
| --- | --- | --- | --- | --- | --- |
| CC(C)N(CCOc1cc(O)c2c(=O)cc(-c3ccccc3)oc2c1)C(C)C | 18.1 | 24.2 | 4.6 | 7.98 | 27.8 |
| O=c1cc(-c2ccccc2)oc2cc(OCCNC3CCCCC3)cc(O)c12 | 4.98 | 6.97 | 2.95 | 6.18 | 1.76 |
| O=c1cc(-c2ccccc2)oc2cc(OCCN3CCOCC3)cc(O)c12 | > 100 | > 100 | > 100 | 43 | > 100 |
| O=c1cc(-c2ccccc2)oc2cc(OCCN3CCN(c4ccccc4)CC3)cc(O)c12 | > 100 | > 100 | > 100 | > 100 | > 100 |
| O=c1cc(-c2ccccc2)oc2cc(OCCn3ccnc3)cc(O)c12 | 7.3 | 10.8 | 4.2 | 5.55 | 27.2 |
| Cc1nccn1CCOc1cc(O)c2c(=O)cc(-c3ccccc3)oc2c1 | 8.2 | 9.7 | 3.2 | 7.83 | 10.8 |
| O=c1cc(-c2ccccc2)oc2cc(OCCNCCO)cc(O)c12 | 5.5 | 4.46 | 2.3 | 5.05 | 8.31 |
| O=c1cc(-c2ccccc2)oc2cc(OCCN(CCO)CCO)cc(O)c12 | > 100 | 86.5 | 22.2 | 59.2 | 105 |
| O=c1cc(-c2ccccc2)oc2cc(OCCNc3ccccc3)cc(O)c12 | 68.2 | > 100 | 35.5 | 69.8 | 31.2 |
| CNCCOc1cc(O)c2c(=O)cc(-c3ccccc3)oc2c1 | 2.95 | 3.72 | 2.5 | 4.8 | 7.8 |
| CC(C)NCCOc1cc(O)c2c(=O)cc(-c3ccccc3)oc2c1 | > 100 | > 100 | 8.1 | > 100 | > 100 |
| CCCCNCCOc1cc(O)c2c(=O)cc(-c3ccccc3)oc2c1 | 1.85 | 40.9 | 2.7 | 1.88 | 14.9 |
| CC(C)(C)NCCOc1cc(O)c2c(=O)cc(-c3ccccc3)oc2c1 | 2.75 | 4.92 | 1.87 | 3.15 | > 100 |
| CN(C)CCOc1cc(O)c2c(=O)cc(-c3ccccc3)oc2c1 | 17.7 | 17.7 | 6.2 | 11 | 17.9 |
| O=c1cc(-c2ccccc2)oc2cc(OCCN3CCCCC3)cc(O)c12 | 3.17 | 1.7 | > 100 | 3.1 | 16.9 |
| CCCCN(CCCC)CCOc1cc(O)c2c(=O)cc(-c3ccccc3)oc2c1 | 44.2 | 13.3 | 9.7 | 53.3 | 43.4 |
| O=c1cc(-c2ccccc2)oc2cc(OCCN3CCNCC3)cc(O)c12 | 32.5 | > 100 | 32.3 | > 100 | > 100 |
| CCCNCCOc1cc(O)c2c(=O)cc(-c3ccccc3)oc2c1 | 1.4 | 56.6 | 1.5 | 11.1 | 12.9 |
| CN1CCN(CCOc2cc(O)c3c(=O)cc(-c4ccccc4)oc3c2)CC1 | 28.7 | 47.4 | 18.7 | 55.7 | 23.9 |
| CCCN(CCC)CCOc1cc(O)c2c(=O)cc(-c3ccccc3)oc2c1 | 8.4 | 1.56 | 38 | 23.6 | > 100 |
| CCN(CC)CCOc1cc(O)c2c(=O)cc(-c3ccccc3)oc2c1 | 3.17 | 18.8 | 9.8 | 13.9 | 12.9 |
| O=c1cc(-c2ccccc2)oc2cc(O)cc(O)c12 [CHRYSIN] | 9.81 | 43 | > 100 | > 100 | > 100 |
| O=c1[nH]cc(F)c(=O)[nH]1 [FLUOROURACIL] | 2.95 | – | – | 2.19 | – |

Source: ChEMBL document CHEMBL3045913, “Synthesis and cytotoxicity of novel chrysin derivatives” (Med Chem Res, 2011)
